Results from patent US5935861A, “Diazonium ion assay reagents and methods for their use” (priority 1997, dated 1999).

Assay type: physicochemical
Description: . An exemplary synthesis is the synthesis of 2-methyl-3-nitroaniline diazonium ion (2). In this embodiment, 2-methyl-3-nitroaniline (1) is converted to the diazonium ion (2) by reaction with sodium nitrite in an acidic aqueous medium. The reaction is illustrated in Scheme I below. The 2-methyl-3-nitroaniline diazonium ion (2) is capable of reacting with bilirubin to form a detectable product, and is thus useful in assays for detecting and quantitating bilirubin in a sample. […]

Cc1c(N)cccc1[N+](=O)[O-] [2-methyl-3-nitroaniline]
solubility in water or other aqueous systems (in words): good solubility in aqueous systems
